Experimental data taken from PMC6465334, “Functional Analysis of MsepOR13 in the Oriental Armyworm Mythimna separata (Walker)” (Frontiers in Physiology, 2019).

Legend:
[1] = biological target: T1, MsepOR13/Orco (MsepOR13/MsepOrco) (Mythimna separata, UniProt A0A650FIP0); experiment: two-electrode voltage clamp, Xenopus oocytes, single concentration; assay type: cell-based; conditions: MsepOrco co-expressed; holding potential -80 mV; 15 s exposure at 10^-4 M; agonist
T1 construct: gene OR13; full-length untagged MsepOR13, 408 aa (ORF 1227 bp), cloned from adult antennal cDNA; pT7Ts cRNA, Xenopus oocytes; with Odorant receptor coreceptor
T1 sequence (A0A650FIP0 1-408): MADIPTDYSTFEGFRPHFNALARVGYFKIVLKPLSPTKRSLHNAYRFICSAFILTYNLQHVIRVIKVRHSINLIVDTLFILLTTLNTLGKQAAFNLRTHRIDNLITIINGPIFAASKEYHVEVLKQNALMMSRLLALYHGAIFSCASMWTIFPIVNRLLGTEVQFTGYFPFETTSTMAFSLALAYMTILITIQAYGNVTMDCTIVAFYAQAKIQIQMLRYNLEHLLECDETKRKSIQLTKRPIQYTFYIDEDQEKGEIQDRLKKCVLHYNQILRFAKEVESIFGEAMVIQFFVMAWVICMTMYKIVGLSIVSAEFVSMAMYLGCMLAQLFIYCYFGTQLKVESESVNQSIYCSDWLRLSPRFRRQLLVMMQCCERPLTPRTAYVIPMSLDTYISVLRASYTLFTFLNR
T1 sequence (B5MEJ5 1-473 partner): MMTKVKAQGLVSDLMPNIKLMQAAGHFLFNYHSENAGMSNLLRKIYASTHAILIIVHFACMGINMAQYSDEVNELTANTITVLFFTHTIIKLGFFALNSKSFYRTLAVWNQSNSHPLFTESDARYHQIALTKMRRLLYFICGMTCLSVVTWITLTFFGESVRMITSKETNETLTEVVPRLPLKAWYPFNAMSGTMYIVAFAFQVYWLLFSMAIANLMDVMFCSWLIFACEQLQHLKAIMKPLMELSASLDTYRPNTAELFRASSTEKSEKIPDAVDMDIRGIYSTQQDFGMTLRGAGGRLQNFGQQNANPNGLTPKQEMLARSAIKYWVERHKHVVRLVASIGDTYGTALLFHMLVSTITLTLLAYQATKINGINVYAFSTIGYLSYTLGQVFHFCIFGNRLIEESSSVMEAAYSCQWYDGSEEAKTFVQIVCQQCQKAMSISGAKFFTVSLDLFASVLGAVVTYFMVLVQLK

[2] = biological target: T1, MsepOR13/Orco (MsepOR13/MsepOrco); experiment: two-electrode voltage clamp, Xenopus oocytes, dose-response; assay type: cell-based

Row | Compound | current response at 10^-4 M [1] | EC50 [2]
1 | C=CCc1ccc(OC)c(OC)c1 [Methyl eugenol] | ~ 1655 nA | –
2 | C=CCc1ccc(O)c(OC)c1 [Eugenol] | – | 3.91 µM
3 | CCCCCCO [1-Hexanol] | 60 nA | –
4 | CC(=O)c1ccccc1 [Acetophenone] | 523.3 nA | –
